According to patent publication US9334264B2, “NAMPT inhibitors” (AbbVie Inc., priority 2012, dated 2016):

How the values were obtained:
[1] = molecular target: NAMPT (human, recombinant, C-terminally His-tagged) (Homo sapiens, UniProt P43490); test: Time-Resolved Fluorescence Resonance Energy Transfer (TR-FRET) Binding Assay of NAMPT; conditions: absence of substrates; 6.8 nM NAMPT, 200 nM probe, equilibrated 3 hours
Procedure, shortened: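 Compounds (typically 11 half-log dilutions, 2% DMSO final) equilibrated 3 h at room temperature with 6.8 nM human C-His NAMPT, 1 nM Tb-anti-His antibody and 200 nM fluorescent competitive probe in pH 7.5 HEPES buffer. IC50 derived by logistic fit of normalized TR-FRET ratio (520/495 nm).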

NAMPT = NAMPT (Homo sapiens, UniProt P43490); test: Time-Resolved Fluorescence Resonance Energy Transfer (TR-FRET) Binding Assay of NAMPT with PRPP; conditions: 200 μM PRPP and 2.5 mM ATP; 2 nM NAMPT, 2 nM probe, equilibrated 16 hours
NAMPT, sequence (P43490 whole entry): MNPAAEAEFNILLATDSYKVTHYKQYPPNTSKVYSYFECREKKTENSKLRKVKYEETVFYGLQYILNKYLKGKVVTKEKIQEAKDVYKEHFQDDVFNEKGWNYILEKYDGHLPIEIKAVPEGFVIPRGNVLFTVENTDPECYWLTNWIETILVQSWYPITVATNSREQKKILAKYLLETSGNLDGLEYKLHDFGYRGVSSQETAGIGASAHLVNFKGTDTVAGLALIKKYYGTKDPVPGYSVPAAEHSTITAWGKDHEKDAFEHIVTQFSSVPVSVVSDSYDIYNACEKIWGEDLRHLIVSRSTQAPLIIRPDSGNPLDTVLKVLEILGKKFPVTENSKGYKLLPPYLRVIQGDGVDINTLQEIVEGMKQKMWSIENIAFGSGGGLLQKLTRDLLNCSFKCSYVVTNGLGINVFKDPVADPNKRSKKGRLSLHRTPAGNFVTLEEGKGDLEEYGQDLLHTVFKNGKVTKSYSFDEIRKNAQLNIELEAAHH
Procedure, shortened: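 Compounds were equilibrated for 16 hours before TR-FRET readout, with substrates present (200 μM PRPP, 2.5 mM ATP) to permit enzymatic modification. Final mix: 2 nM His-tagged NAMPT, 2 nM probe, 1 nM Tb-anti-His antibody, 2% DMSO.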

NAMPT (human, recombinant, C-terminally His-tagged), sequence (P43490 whole entry): as above

Structure (SMILES) | IC50 [1] [nM] | IC50 (NAMPT) [nM]
CC1CN(C(=O)N(Cc2ccc(F)cc2)c2ncc(C(=O)NCCCn3ccnc3)s2)CC(C)O1 (stereo not drawn) [Example 70, N-(4-fluorobenzyl)-N-(5-{[3-(1H-imidazol-1-yl)propyl]carbamoyl}-1,3-thiazol-2-yl)-2,6-dimethylmorpholine-4-carboxamide] | > 10000 | 5.08
O=C(NCCCn1ccnc1)c1cnc(N(Cc2ccc(F)cc2)C(=O)NC2CCOC2)s1 (stereo not drawn) [Example 91, 2-[(4-fluorobenzyl)(tetrahydrofuran-3-ylcarbamoyl)amino]-N-[3-(1H-imidazol-1-yl)propyl]-1,3-thiazole-5-carboxamide] | 8690 | 0.543
O=C(NCCCn1ccnc1)c1cnc(N(Cc2ccc(F)cc2)C(=O)CC2CCCCC2)s1 [Example 5, 2-[(cyclohexylacetyl)(4-fluorobenzyl)amino]-N-[3-(1H-imidazol-1-yl)propyl]-1,3-thiazole-5-carboxamide] | 720 | 0.461
COCCC(=O)N(Cc1cccnc1)c1ncc(C(=O)NCCCn2ccnc2)s1 [Example 122, N-[3-(1H-imidazol-1-yl)propyl]-2-[(3-methoxypropanoyl)(pyridin-3-ylmethyl)amino]-1,3-thiazole-5-carboxamide] | > 10000 | 4.31
COCCC(=O)N(CCc1ccc2c(c1)OCO2)c1ncc(C(=O)NCCCn2ccnc2)s1 [Example 102, 2-{[2-(1,3-benzodioxol-5-yl)ethyl](3-methoxypropanoyl)amino}-N-[3-(1H-imidazol-1-yl)propyl]-1,3-thiazole-5-carboxamide acetate (1:1)] | 306 | 2.16
O=C(NCCCn1ccnc1)c1cnc(N(Cc2ccc(F)cc2)C(=O)C[n+]2ccccc2)s1 [Example 44, 1-{2-[(4-fluorobenzyl)(5-{[3-(1H-imidazol-1-yl)propyl]carbamoyl}-1,3-thiazol-2-yl)amino]-2-oxoethyl}pyridinium] | > 10000 | 7.77
CNC(=O)CN(Cc1ccc(F)cc1)c1ncc(C(=O)NCCCn2ccnc2)s1 [Example 18, 2-{(4-fluorobenzyl)[2-(methylamino)-2-oxoethyl]amino}-N-[3-(1H-imidazol-1-yl)propyl]-1,3-thiazole-5-carboxamide] | 4820 | 814
COCCC(=O)N(c1ncc(C(=O)NCCCn2ccnc2)s1)C(C)c1ccccn1 (stereo not drawn) [Example 110, N-[3-(1H-imidazol-1-yl)propyl]-2-{(3-methoxypropanoyl)[1-(pyridin-2-yl)ethyl]amino}-1,3-thiazole-5-carboxamide] | > 10000 | 23.2
N#Cc1ccc(CN(C(=O)CC2CCOCC2)c2ncc(C(=O)NCCCn3ccnc3)s2)cc1 [Example 51, 2-[(4-cyanobenzyl)(tetrahydro-2H-pyran-4-ylacetyl)amino]-N-[3-(1H-imidazol-1-yl)propyl]-1,3-thiazole-5-carboxamide] | > 10000 | 4.94
CCOCCNC(=O)N(Cc1ccc(F)cc1)c1ncc(C(=O)NCCCn2ccnc2)s1 [Example 83, 2-{[(2-ethoxyethyl)carbamoyl](4-fluorobenzyl)amino}-N-[3-(1H-imidazol-1-yl)propyl]-1,3-thiazole-5-carboxamide] | 2890 | 0.998
CC(C)CC(=O)N(CCc1ccc(C#N)cc1)c1ncc(C(=O)NCCCn2ccnc2)s1 [Example 48, 2-{[2-(4-cyanophenyl)ethyl](3-methylbutanoyl)amino}-N-[3-(1H-imidazol-1-yl)propyl]-1,3-thiazole-5-carboxamide] | 807 | 0.701
CC(C)CCN(Cc1ccccc1F)c1ncc(C(=O)NCCCn2ccnc2)s1 [Example 55, 2-[(2-fluorobenzyl)(3-methylbutyl)amino]-N-[3-(1H-imidazol-1-yl)propyl]-1,3-thiazole-5-carboxamide] | > 10000 | 3180
O=C(NCCCn1ccnc1)c1cnc(N(Cc2ccc(F)cc2)C(=O)CN2CC=CCC2)s1 [Example 27, 2-[(3,6-dihydropyridin-1(2H)-ylacetyl)(4-fluorobenzyl)amino]-N-[3-(1H-imidazol-1-yl)propyl]-1,3-thiazole-5-carboxamide] | > 10000 | 0.632
O=C(NCCCn1ccnc1)c1cnc(N(CCCN2CCOCC2)Cc2ccc(F)cc2)s1 [Example 7, 2-{(4-fluorobenzyl)[3-(morpholin-4-yl)propyl]amino}-N-[3-(1H-imidazol-1-yl)propyl]-1,3-thiazole-5-carboxamide] | 1610 | 486
COCCC(=O)N(Cc1ncccn1)c1ncc(C(=O)NCCCn2ccnc2)s1 [Example 93, N-[3-(1H-imidazol-1-yl)propyl]-2-[(3-methoxypropanoyl)(pyrimidin-2-ylmethyl)amino]-1,3-thiazole-5-carboxamide] | > 10000 | 16.6

Next, values leading:

IC50 [1] [nM] | IC50 (NAMPT) [nM] | Structure (SMILES)
9210 | 0.251 | COCCC(=O)N(CCCN1CCCC1=O)c1ncc(C(=O)NCCCn2ccnc2)s1 [Example 197, N-[3-(1H-imidazol-1-yl)propyl]-2-{(3-methoxypropanoyl)[3-(2-oxopyrrolidin-1-yl)propyl]amino}-1,3-thiazole-5-carboxamide]
> 10000 | 0.556 | COCCC(=O)N(CC1COCCO1)c1ncc(C(=O)NCCCn2ccnc2)s1 (stereo not drawn) [Example 181, 2-[(1,4-dioxan-2-ylmethyl)(3-methoxypropanoyl)amino]-N-[3-(1H-imidazol-1-yl)propyl]-1,3-thiazole-5-carboxamide]
707 | 2.33 | CC(C)CCN(C(=O)CC1CCCO1)c1ncc(C(=O)NCCCn2ccnc2)s1 (stereo not drawn) [Example 173, N-[3-(1H-imidazol-1-yl)propyl]-2-[(3-methylbutyl)(tetrahydrofuran-2-ylacetyl)amino]-1,3-thiazole-5-carboxamide]
739 | 0.177 | O=C(NCCCn1ccnc1)c1cnc(N(Cc2ccc(Cl)cn2)C(=O)C2CCOCC2)s1 [Example 205, 2-{[(5-chloropyridin-2-yl)methyl](tetrahydro-2H-pyran-4-ylcarbonyl)amino}-N-[3-(1H-imidazol-1-yl)propyl]-1,3-thiazole-5-carboxamide]
219 | 0.412 | COCC(=O)N(CCC(C)C)c1ncc(C(=O)NCCCn2ccnc2)s1 [Example 151, N-[3-(1H-imidazol-1-yl)propyl]-2-[(methoxyacetyl)(3-methylbutyl)amino]-1,3-thiazole-5-carboxamide]
> 10000 | 0.265 | CCN(CC)CCN(C(=O)CCOC)c1ncc(C(=O)NCCCn2ccnc2)s1 [Example 191, 2-{[2-(diethylamino)ethyl](3-methoxypropanoyl)amino}-N-[3-(1H-imidazol-1-yl)propyl]-1,3-thiazole-5-carboxamide]
8450 | 266 | CC(C)(CNC(=O)N(Cc1ccc(C#N)cc1)c1ncc(C(=O)NCCCn2ccnc2)s1)C(=O)O [Example 169, 3-{[(4-cyanobenzyl)(5-{[3-(1H-imidazol-1-yl)propyl]carbamoyl}-1,3-thiazol-2-yl)carbamoyl]amino}-2,2-dimethylpropanoic acid]
> 10000 | 195 | CCOC(=O)CCCNC(=O)N(Cc1ccc(C#N)cc1)c1ncc(C(=O)NCCCn2ccnc2)s1 [Example 160, ethyl 4-{[(4-cyanobenzyl)(5-{[3-(1H-imidazol-1-yl)propyl]carbamoyl}-1,3-thiazol-2-yl)carbamoyl]amino}butanoate]
1100 | 1.23 | COCCN(C(=O)Cc1ccc(Oc2ccccc2)cc1)c1ncc(C(=O)NCCCn2ccnc2)s1 [Example 186, N-[3-(1H-imidazol-1-yl)propyl]-2-{(2-methoxyethyl)[(4-phenoxyphenyl)acetyl]amino}-1,3-thiazole-5-carboxamide]
8790 | 32.1 | N#Cc1ccc(CN(C(=O)NCCC(=O)O)c2ncc(C(=O)NCCCn3ccnc3)s2)cc1 [Example 171, N-[(4-cyanobenzyl)(5-{[3-(1H-imidazol-1-yl)propyl]carbamoyl}-1,3-thiazol-2-yl)carbamoyl]-beta-alanine]
2740 | 0.192 | CC(C)OCCNC(=O)N(CCc1ccc(Cl)cn1)c1ncc(C(=O)NCCCn2ccnc2)s1 [Example 210, 2-([2-(5-chloropyridin-2-yl)ethyl]{[2-(propan-2-yloxy)ethyl]carbamoyl}amino)-N-[3-(1H-imidazol-1-yl)propyl]-1,3-thiazole-5-carboxamide]
24.4 | 0.174 | CC(C)CCN(C(=O)COc1ccccc1)c1ncc(C(=O)NCCCn2ccnc2)s1 [Example 136, N-[3-(1H-imidazol-1-yl)propyl]-2-[(3-methylbutyl)(phenoxyacetyl)amino]-1,3-thiazole-5-carboxamide]
4780 | 0.743 | C=C[C@@H](CO)NC(=O)N(Cc1ccc(C#N)cc1)c1ncc(C(=O)NCCCn2ccnc2)s1 [Example 131, 2-[(4-cyanobenzyl){[(2S)-1-hydroxybut-3-en-2-yl]carbamoyl}amino]-N-[3-(1H-imidazol-1-yl)propyl]-1,3-thiazole-5-carboxamide]
3330 | 187 | CCOC(=O)CC(NC(=O)N(Cc1ccc(C#N)cc1)c1ncc(C(=O)NCCCn2ccnc2)s1)C(C)C (stereo not drawn) [Example 162, ethyl 3-{[(4-cyanobenzyl)(5-{[3-(1H-imidazol-1-yl)propyl]carbamoyl}-1,3-thiazol-2-yl)carbamoyl]amino}-4-methylpentanoate]
6700 | 0.245 | COCCNC(=O)N(CCc1ccc(Cl)cn1)c1ncc(C(=O)NCCCn2ccnc2)s1 [Example 209, 2-{[2-(5-chloropyridin-2-yl)ethyl][(2-methoxyethyl)carbamoyl]amino}-N-[3-(1H-imidazol-1-yl)propyl]-1,3-thiazole-5-carboxamide]
